Experimental data: US20120308554A1, “VEGF-D/VEGFR2/3-MEDIATED REGULATION OF DENDRITES” (UNIVERSITAT HEIDELBERG, priority 2011, published 2012)
Like-named read-outs stand apart in the source and are kept apart here.

Tests used:
Format in all cases: cell-based, mice
VEGFD = assay: qRT-PCR analysis of VEGFD expression in hippocampal neurons
Method: Total RNA was isolated at DIV10 to DIV13 from hippocampal primary neuron cultures or isolated brain tissues with Rneasy Mini Kit (Qiagen, Hilden, Germany) including an optional Dnase I treatment at room temperature for 15 min according to manufacturer's instructions (Qiagen). 1.2 μg of extracted RNA was reverse transcribed into first strand cDNA using High Capacity cDNA Reverse Transcription kit (Applied Biosystems, Foster City, Calif.).
Quantitative reverse transcriptase PCR (qRT-PCR) was done on an ABI7300 thermal cycler using Universal qRT-PCR master mix with TaqMan Gene Expression Assays for the indicated genes (Applied Biosystems). The following TaqMan Gene Expression Assays were used in this study: Gusb (Mm00446953_m1), cFos (Mm00487425_m1), VEGFD (Mm00438965_m1), VEGFC (Mm01202432_m1), VEGF (Mm01281449_m1), VEGFR3 (Mm01292618_m1), beta-actin (Mm00607939_s1), beta-2 microglobulin (Mm00437762_m1), CBP (Mm01342435_m1), p38 MAPK alpha (Mm00442497_m1), p38 MAPK beta (Mm00440955_m1). Expression of target genes was normalized against the expression of Gusb as endogenous control gene. Data were derived from at least 5 independent experiments.

hippocampal neurons = assay: Morphometric analyses (total dendritic length, Sholl analysis, spine density) of cultured hippocampal neurons; conditions: for total dendritic length and dendritic complexity (Sholl analysis): neurons expressing the construct versus control constructs; for rescue of reduction in dendrite length and complexity caused by CaMBP4 or CaMKIVK75E: recombinant factors 100 ng/ml for 3 days, or VEGFD-HA expression
Method: Hippocampal neurons from newborn C57BL/6 mice were cultured as known in the art. Experiments were done after a culturing period of 10 to 14 days in vitro (DIV). DNA transfection was done on DIV8 using Lipofectamine 2000 (Invitrogen, San Diego, Calif.). For the studies on dendrite morphology, neurons were analyzed 4-5 days after transfection.
For 3D Sholl Analysis, total dendritic length and spine morphology were calculated using Object-Image freeware software with a specific set of macros (written by Dr. E. Ruthazer, McGill University, Quebec). Briefly, a z-Stack acquisition was imported, calibrated in Object-Image and manually traced. Total dendritic length was then computed. For Sholl analysis, the shell interval was set at 5 μm. All analyses were performed blind. In all in vitro experiments, for each condition, a minimum of 12 neurons from three independent preparations was analyzed. For the Golgi staining quantifications of 20 neurons for each condition from 4 different injected animals per viral construct were traced and analyzed.
Hippocampal neurons were fixed with 4% paraformaldehyde at room temperature for 20 min. For immunostaining, primary and secondary antibodies were applied in GDB buffer (30 mM phosphate buffer [pH7.4] containing 0.2% gelatin, 0.5% Triton X-100, and 0.9 M NaCl). For the morphometric analyses, fluorescence images were acquired using a confocal laser-scanning microscope TCS SP2 (Leica, Mannheim, Germany) equipped with an inverted fluorescence microscope DM IRE2 (Leica) and Leica confocal scan software. All images were obtained with sequential acquisition setting at a resolution of 1024×1024 pixels. Each image was a z series projection of images taken at 1 μm intervals.

[1] = system: cultured hippocampal neurons; assay: Whole-cell patch clamp recordings of cultured hippocampal neurons
From the text: Whole-cell patch clamp recordings were made at room temperature from cultured hippocampal neurons plated on coverslips secured with a platinum ring in a recording chamber (Open access chamber-1, Science Products GmbH, Hofheim, Germany) mounted on a fixed-stage upright microscope (BX51WI, Olympus, Hamburg, Germany). Differential interference contrast optics, infrared illumination and a CCD camera (PCO, Visitron Systems, Puchheim, Germany) connected to a contrast enhancement unit (Argus, Hamamatsu, Herrsching am Ammersee, Germany) were used to view neurons on a video monitor. Recordings were made with a Multiclamp 700A amplifier, digitized through a Digidata 1322A A/D converter and acquired using pClamp software (Molecular Devices, CA, USA). All membrane potentials have been corrected for the calculated junction potential of −11 mV (JPCalc program by Dr. Peter H. Barry). mEPSCs and whole-cell AMPA (10 μM, 6 ml/min, Biotrend) responses were recorded as known in the art except for the solutions and that a holding potential of −71 mV was used and both TTX (1 μM, Biotrend, Cologne, Germany) and gabazine (5 μM, Biotrend) were included in the ACSF. TTX was applied before gabazine to prevent the induction of action potential bursting. Access (range: 7-18 MU) and membrane resistance (see Table 1) were monitored before and after mEPSC recordings and data was rejected if changes greater than 20% occurred.
Patch electrodes (3-4 MU) were made from borosilicate glass (1.5 mm, WPI, Sarasota, Fla., USA) and filled with intracellular solution (containing in mM: KCH3SO4, 145; NaCl, 8; HEPES, 10; K2-phosphocreatine, 10; Mgt-ATP, 4; Na3-GTP, 0.3; pH 7.35 with KOH). The extracellular solution was an artificial cerebrospinal fluid (ACSF, in mM: NaCl, 125; KCl, 3.5; MgCl2, 1.3; NaH2PO4, 1.2; CaCl2, 2.4; glucose, 25; NaHCO3, 26; gassed with 95% O2 and 5% CO2).

[2] = system: VEGFD, VEGF, VEGFC and VEGFR3; assay: qRT-PCR analysis of shRNA knock-down of VEGF family members; conditions: hippocampal neurons infected with rAAV
Method: Total RNA was isolated at DIV10 to DIV13 from hippocampal primary neuron cultures or isolated brain tissues with Rneasy Mini Kit (Qiagen, Hilden, Germany) including an optional Dnase I treatment at room temperature for 15 min according to manufacturer's instructions (Qiagen). 1.2 μg of extracted RNA was reverse transcribed into first strand cDNA using High Capacity cDNA Reverse Transcription kit (Applied Biosystems, Foster City, Calif.). Quantitative reverse transcriptase PCR (qRT-PCR) was done on an ABI7300 thermal cycler using Universal qRT-PCR master mix with TaqMan Gene Expression Assays for the indicated genes (Applied Biosystems). The following TaqMan Gene Expression Assays were used in this study: Gusb (Mm00446953_m1), cFos (Mm00487425_m1), VEGFD (Mm00438965_m1), VEGFC (Mm01202432_m1), VEGF (Mm01281449_m1), VEGFR3 (Mm01292618_m1), beta-actin (Mm00607939_s1), beta-2 microglobulin (Mm00437762_m1), CBP (Mm01342435_m1), p38 MAPK alpha (Mm00442497_m1), p38 MAPK beta (Mm00440955_m1). Expression of target genes was normalized against the expression of Gusb as endogenous control gene. Data were derived from at least 5 independent experiments. For expression of shRNAs, an rAAV vector containing the U6 promoter for shRNA expression and a CaMKII promoter driving mCherry expression was used. Three different sequences were obtained from Open Biosystems ([…] 2 and […] 3), cloned and tested for silencing efficiency. […] As control, a scramble version of this sequence ([…] ID NO: 2) and the vector carrying only the mCherry ([…]) were used. Shp38alpha [NT] ID NO: 3), shp38beta [NT] ID NO: 4), […] ID NO: 5), […] ID NO: 6) and […] ID NO: 7; sequence obtained from Open Biosystems www.openbiosystems.com) were also cloned into the same vector. CBP expression level was knocked down using a pool of four short interfering RNAs (siRNAs) targeting mouse CBP (Accell siRNA SMARTpool; Thermo Scientific Dharmacon). The SMARTpool is a group of four siRNAs that have been screened to reduce a variety of potential off-target effects including the inclusion of miRNA (microRNA)-like seed motifs. Silencing of GAPDH was measured using Accell mouse GAPDH as a positive control, and as a negative control, a non-targeting Accell mouse siRNA pool was used. In addition, a fluorescently labeled non-targeting Accell mouse siRNA was also used to evaluate penetration efficiency in hippocampal neurons via immunocytochemistry. Briefly, 500 nM siRNAs were supplemented in the serum-free culturing medium at DIV8, and mRNA levels were analyzed at DIV13.

Molecule: C[C@]12N[C@H](Cc3ccccc31)c1ccccc12 [MK801, reference compound]
- VEGFD expression (qRT-PCR) (VEGFD): significantly reduced the expression of VEGFD mRNA

Molecule: C[S+]([O-])c1ccc(-c2nc(-c3ccncc3)c(-c3ccc(F)cc3)[nH]2)cc1 (stereo not drawn) [SB203580, reference compound]
- Sholl analysis, SB203580 alone (hippocampal neurons): showed no difference compared to the respective untreated controls
- effect on rVEGFD-induced rescue of dendrite length and complexity (hippocampal neurons): severely compromised the ability of rVEGFD to rescue the impairment of dendrite length and complexity

Molecule: shSCR: scramble version of the shVEGFD sequence (GTGCCAAGACGGGTAGTCA; SEQ ID NO: 2), control [reference compound]
- AP induc thresh (current injection required to induce an action potential) ([1]; infected neurons): 116 ± 10 pA
- AP thresh (membrane potential at which action potentials initiate) ([1]; infected neurons): −48.4 ± 1.0 mV
- Cm (membrane capacitance) ([1]; infected neurons): 102.4 ± 4.4 pF
- Rm (membrane resistance) ([1]; infected neurons): 275 ± 15 MΩ
- Vrest (resting membrane potential) ([1]; infected neurons): −78.7 ± 1.7 mV
- mEPSC τ decay ([1]; infected neurons): 5.70 ± 0.12 ms
- mEPSC τ rise ([1]; infected neurons): 3.36 ± 0.07 ms
- AP induc thresh (current injection required to induce an action potential) ([1]; transfected neurons): 125 ± 13 pA
- AP thresh (membrane potential at which action potentials initiate) ([1]; transfected neurons): −44.1 ± 1.6 mV
- Cm (membrane capacitance) ([1]; transfected neurons): 88.6 ± 5.5 pF
- Rm (membrane resistance) ([1]; transfected neurons): 291 ± 32 MΩ
- Vrest (resting membrane potential) ([1]; transfected neurons): −76.5 ± 2.3 mV
- mEPSC τ decay ([1]; transfected neurons): 6.06 ± 0.07 ms
- mEPSC τ rise ([1]; transfected neurons): 3.18 ± 0.14 ms
- spine density (number of spines/20 μm) (hippocampal neurons; transfected hippocampal neurons): 6.17±0.56 spines/20 μm

Molecule: shVEGF: shRNA specific for VEGF (ACCTCACCAAAGCCAGCAC; SEQ ID NO: 5) [reference compound]
- total dendritic length and dendritic complexity (Sholl analysis) (hippocampal neurons): had no effect on dendrite length or complexity
- mRNA levels of respective targets [2]: reduced mRNA levels of their respective targets

Molecule: shVEGFC: shRNA specific for VEGFC (GTTCATTCCATTATTAGAC; SEQ ID NO: 6) [reference compound]
- total dendritic length and dendritic complexity (Sholl analysis) (hippocampal neurons): had no effect on dendrite length or complexity
- mRNA levels of respective targets [2]: reduced mRNA levels of their respective targets

Molecule: shVEGFR3: shRNA specific for VEGFR3 (CCCAGTATTGTGTGGTACAAA; SEQ ID NO: 7)
- total dendritic length and dendritic complexity (Sholl analysis) (hippocampal neurons): changes in the dendritic structure that were virtually identical to those obtained in hippocampal neurons transfected with pAAV-shVEGFD
- mRNA levels of respective targets [2]: reduced mRNA levels of their respective targets

Molecule: shp38α: shRNA specific for the alpha isoform of p38 MAPK (AAACACGAAAATGTGATTGGT; SEQ ID NO: 3) [reference compound]
- effect on rVEGFD-induced rescue of dendrite length and complexity (hippocampal neurons; neurons expressing CaMBP4 (and CaMKIVK75E), rVEGFD 3 days): prevented the rVEGFD-induced rescue

B1: VEGFD-HA: HA-tagged VEGFD expressed from rAAV plasmid or rAAV (protein, UniProt P97946 94-210, looked up)
Vascular endothelial growth …: FAATFYDTETLKVIDEEWQRTQCSPRETCVEVASELGKTTNTFFKPPCVNVFRCGGCCNEEGVMCMNTSTSYISKQLFEISVPLTSVPELVPVKIANHTGCKCLPTGPRHPYSIIRR
modifications: HA tag
- neuronal morphology (hippocampal neurons; neurons without nuclear calcium signaling blockade): no detectable effect on neuronal morphology
- restoration of spine density in CaMBP4 or CaMKIVK75E expressing neurons (hippocampal neurons; rVEGFD 100 ng/ml 3 days or VEGFD-HA expression): failed to restore normal spine density
- rescue of reduction in dendrite length and complexity caused by CaMBP4 or CaMKIVK75E (hippocampal neurons): rescued the reduction in dendrite length and complexity

B2: rVEGFC: recombinant mouse VEGFC (Biocat) (protein, UniProt P97953 108-223, looked up)
Vascular endothelial growth …: AHYNTEILKSIDNEWRKTQCMPREVCIDVGKEFGAATNTFFKPPCVSVYRCGGCCNSEGLQCMNTSTGYLSKTLFEITVPLSQGPKPVTISFANHTSCRCMSKLDVYRQVHSIIRR
- rescue of reduction in dendrite length and complexity caused by CaMBP4 or CaMKIVK75E (hippocampal neurons): neither recombinant VEGF (rVEGF) nor recombinant VEGFC (rVEGFC) was able to rescue

B3: resiVEGFD-HA: HA-tagged VEGFD resistant to shVEGFD, expressed from plasmid (protein, UniProt P97946 94-210, looked up)
Vascular endothelial growth …: B1 Vascular endothelial growth …
modifications: HA tag; shRNA-resistant coding sequence
notes: HA-tagged VEGFD resistant to shVEGFD, expressed from plasmid
- effect on reduction of dendrite length and complexity caused by shVEGFD (hippocampal neurons; pAAV-shVEGFD transfected neurons, rVEGFD 100 ng/ml 3 days or co-transfection): rescued the reduction of dendrite length and complexity
